Legend:
human FXR (NR1H4) = target: T1, human FXR (NR1H4) (Homo sapiens, UniProt Q96RI1); assay: Human FXR (NR1H4) agonist assessment, FXRE-NanoLuc reporter in HEK293T cells; type: cell-based; conditions: FXR activation, HEK293T FXRE-NanoLuc reporter, 24 hr; for EC50: read-out: EC50
T1 sequence (Q96RI1 1-476 isoform Q96RI1-1): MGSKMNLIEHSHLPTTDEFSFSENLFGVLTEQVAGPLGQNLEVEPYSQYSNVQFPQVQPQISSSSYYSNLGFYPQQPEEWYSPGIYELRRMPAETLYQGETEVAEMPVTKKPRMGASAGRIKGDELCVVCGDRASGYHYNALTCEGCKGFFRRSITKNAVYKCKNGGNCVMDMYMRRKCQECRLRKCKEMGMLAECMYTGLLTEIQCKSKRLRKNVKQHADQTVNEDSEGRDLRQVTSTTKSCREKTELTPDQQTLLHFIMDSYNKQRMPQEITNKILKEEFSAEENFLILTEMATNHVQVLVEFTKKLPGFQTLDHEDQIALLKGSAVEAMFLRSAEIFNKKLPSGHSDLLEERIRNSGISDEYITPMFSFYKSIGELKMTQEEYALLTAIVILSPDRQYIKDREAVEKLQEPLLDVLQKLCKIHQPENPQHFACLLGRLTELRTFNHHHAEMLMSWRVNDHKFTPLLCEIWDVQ
Protocol: As those skilled in the art appreciate, various technologies are available for assessment of FXR activation in accordance with the present disclosure. […] Human FXR (NR1H4) agonist assessment (see, e.g., Yu et al. eLife 2019; 8: e48431): HEK293T cells stably expressing human FXR and containing FXR response element (FXRE)-NanoLuc reporter were cultured in DMEM medium supplemented with 10% FBS and 1% PS, at 37° C. in a humidified atmosphere with 5% CO2. Cells were detached by centrifuging (1000 rpm, 3 min). The pellet was re-suspended in medium, and cell density was adjusted to about 1×10^6 cells/mL. 100 μL suspension was seeded to each well of a white-walled, clear-bottom 96-well microplates (cell plate). Cells in microplates were cultured overnight.
In the following day, cells were grown to higher than 95% density in each well. Culture medium was replaced, and compounds were added to the wells. 0.01% DMSO (v/v) served as negative control. Plates were incubated at 37° C. in 5% CO2 for 24 hr.
In the following day, a 10 μL aliquot of cell culture medium was removed from each well and combined with 40 μL culture medium plus […] assay buffer (containing 20 mM of the luciferase substrate coelenterazine). After 5 min incubation, luminescence was measured using an EnVision plate reader (PerkinElmer).
In some embodiments, gradient diluted solutions of several concentrations were used to treat cells and corresponding responses were used to fit sigmoid function and to derive EC50 in Origin.

MRGPRX4 = MRGPRX4 (Homo sapiens, UniProt Q96LA9); assay: MRGPRX4 activation, Fluo-8 Ca2+ FLIPR assay in HEK293T cells stably expressing MRGPRX4; type: cell-based
Chain of MRGPRX4 (Q96LA9 whole entry): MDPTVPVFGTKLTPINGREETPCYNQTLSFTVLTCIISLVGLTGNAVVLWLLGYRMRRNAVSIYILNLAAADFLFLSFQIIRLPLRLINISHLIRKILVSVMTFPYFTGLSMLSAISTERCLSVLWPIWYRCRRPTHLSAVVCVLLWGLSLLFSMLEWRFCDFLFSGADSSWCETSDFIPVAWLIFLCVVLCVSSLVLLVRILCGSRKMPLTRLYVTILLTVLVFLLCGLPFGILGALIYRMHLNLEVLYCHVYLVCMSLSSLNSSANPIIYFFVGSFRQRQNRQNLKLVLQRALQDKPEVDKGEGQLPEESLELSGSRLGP
Protocol: In some embodiments, cells were cultured in poly-D-Lys coated blacked walled, clear-bottom 96-well microplates. HEK293T cells stably expressing MRGPRX4 were cultured in DMEM medium supplemented with 10% FBS and 1% PS, at 37° C. in a humidified atmosphere with 5% CO2. Cells were detached by centrifuging (1000 rpm, 3 min). The pellet was re-suspended in medium, and cell density was adjusted to about 1×10^6 cells/mL. 100 μL suspension was seeded to each well of a microplates (cell plate). Cells in the microplates were cultured overnight. In the following day, cells were grown to higher than 95% density in each well.
Ca^2+ fluorescent dye loading: Fluo-8 AM (Screen Quest Fluo-8 AM Calcium Assay Kit, AAT Bioquest, cat. #: 21083) was diluted in HHBS buffer and adjusted to 2 μM (dye buffer). Medium in each well was changed into 50 μL dye buffer carefully. After incubation for 40-60 min under room temperature, the dye buffer was changed into 50 μL HHBS buffer.
The concentration of solution should be determined according to the protocol settings and experimental needs (e.g., Log[M]=−4, −5, −6, −7, −8, and −9). Prepare 2× serial dilution series of compounds (at least 75 μL per well).
A fluorescent signal baseline was measured using FLIPR®Tetra for 30 s. Then 50 μL of the chemical solution would be added to the cell plate. The fluorescent signal would be measured for another 150 s.
Activity of each compound was calculated by the fluorescence change (dF/F0). Curves were fitted to obtain EC50 values. In some embodiments, at least 3 repeats were performed to obtain the average values. For assessment of a compound, gradient diluted solutions of different concentrations were used to treat cells and corresponding responses were used to fit sigmoid function and to derive EC50 in Origin. In some embodiments, assessed concentrations were or included about 10^−4, 10^−4.5, 10^−5, 10^−5.5, 10^−6, 10^−6.5, 10^−7, 10^−8, and/or 10^−9 M; for example, in many instances, assessed concentrations included about 10^−5, 10^−6, 10^−7 and 10^−8 M. In some embodiments, assessed concentrations were about 10^−4, 10^−4.5, 10^−5, 10^−5.5, 10^−6, 10^−7, 10^−8, and 10^−9 M. In some embodiments, assessed concentrations were about 10^−4, 10^−5, 10^−6, 10^−7, 10^−8, and 10^−9 M. In some embodiments, assessed concentrations were about 10^−4, 10^−4.5, 10^−5, 10^−5.5, 10^−6, and 10^−7 M. In some embodiments, assessed concentrations were about 2000000, 1000000, 500000, 250000, 125000, 62500, 31250, 15625, 7813, 3906 nM. […] In some embodiments, assessed concentrations were about 30000, 10000, 3333, 1111, 370, 123, 41, 14, 4.6, 1.5 nM.

SMILES	Efficacy (maximum measured induction of NanoLuc, normalized to CDCA set as 100%) (human FXR (NR1H4))	EC50 (human FXR (NR1H4)) [nM]	also measured
CC[C@H]1[C@@H](O)[C@@H]2[C@H](CC[C@]3(C)[C@@H]([C@H](C)CCNC(=N)N)CC[C@@H]23)[C@@]2(C)CCCC[C@@H]12 [17-1]	A (efficacy >400%)	< 1000	
C[C@H](CCC(=O)O)[C@H]1CC[C@H]2[C@@H]3[C@H](O)C[C@@H]4C[C@H](O)CC[C@]4(C)[C@H]3CC[C@]12C [CDCA, chenodeoxycholic acid, reference compound]			MRGPRX4 activation, fluorescence change (dF/F0), Average (MRGPRX4; Conc. (Log[M]) −4): 1.098; MRGPRX4 activation, fluorescence change (dF/F0), Average (MRGPRX4; Conc. (Log[M]) −4.5): 0.586; MRGPRX4 activation, fluorescence change (dF/F0), Average (MRGPRX4; Conc. (Log[M]) −5): 0.082; MRGPRX4 activation, fluorescence change (dF/F0), Average (MRGPRX4; Conc. (Log[M]) −5.5): −0.017; MRGPRX4 activation, fluorescence change (dF/F0), Average (MRGPRX4; Conc. (Log[M]) −6): −0.057; MRGPRX4 activation, fluorescence change (dF/F0), Average (MRGPRX4; Conc. (Log[M]) −7): −0.044; MRGPRX4 activation, fluorescence change (dF/F0), Average (MRGPRX4; Conc. (Log[M]) −8): −0.049; MRGPRX4 activation, fluorescence change (dF/F0), Average (MRGPRX4; Conc. (Log[M]) −9): −0.070
CC[C@H]1[C@@H](O)[C@@H]2[C@H](CC[C@]3(C)[C@@H]([C@H](C)CCNC(=O)C(=O)O)CC[C@@H]23)[C@@]2(C)CCCC[C@@H]12 [8-1]	B (300%<efficacy <=400%)	1000 to 10000	
CC[C@H]1[C@@H](O)[C@@H]2[C@H](CC[C@]3(C)[C@@H]([C@H](C)CCN)CC[C@@H]23)[C@@]2(C)CCCC[C@@H]12 [6-1]	B (300%<efficacy <=400%)	< 1000	
CC[C@H]1[C@@H](O)[C@@H]2[C@H](CC[C@]3(C)[C@@H]([C@H](C)CCc4nnc(N)[nH]4)CC[C@@H]23)[C@@]2(C)CCCC[C@@H]12 [15-2]	C (100%<efficacy <=300%)	< 1000	
